Experimental data taken from ChEMBL document CHEMBL1127996, “Structure and synthesis of clausenaquinone-a. A novel carbazolequinone alkaloid and bioactive principle from Clausena excavata” (Bioorg Med Chem Lett, 1994).
Converted amounts (≈) assume the structure as drawn.

Columns and labels:
RPMI-7951 = test: Cytotoxicity in RPMI-7951 cell line; type: functional, cell-based; details: Homo sapiens
P388 = test: Cytotoxicity in P-388 cell line; type: functional, cell-based; details: Mus musculus
HCT-8 = test: Cytotoxicity in HCT-8 cell line; type: functional, cell-based; details: Homo sapiens
Oryctolagus cuniculus = species on record: Oryctolagus cuniculus; test: Compound was tested for inhibition of platelet aggregation induced by arachidonic acid(100 uM) at a dose of 10 ug/mL in rabbit; type: functional
TE-671 = test: Cytotoxicity in TE671 cell line; type: functional, cell-based; details: Homo sapiens

Row | Compound | IC50 (RPMI-7951) | IC50 (P388) | IC50 (HCT-8) | Inhibition (Oryctolagus cuniculus) | IC50 (TE-671)
1 | COC1=CC(=O)c2[nH]c3ccc(C)c(O)c3c2C1=O | 0.33 µg/mL (≈ 1.28 µM) | 2.24 µg/mL (≈ 8.71 µM) | 1.82 µg/mL (≈ 7.07 µM) | 100% | 0.17 µg/mL (≈ 0.661 µM)
2 | COC1=CC(=O)c2[nH]c3cc(O)c(C)cc3c2C1=O | 0.22 µg/mL (≈ 0.855 µM) | – | 0.92 µg/mL (≈ 3.58 µM) | – | 3.82 µg/mL (≈ 14.8 µM)
